Where a SMILES comes first, the peptide text is derived from it. The star is where a group is joined. Succinimide(1-Et,3-yl) = CCN1C(=O)CC(*)C1=O
Target: T1, human CRHR2 (Homo sapiens, UniProt Q13324)
T1 construct: expressed in transfected cells
T1 sequence (Q13324 1-411): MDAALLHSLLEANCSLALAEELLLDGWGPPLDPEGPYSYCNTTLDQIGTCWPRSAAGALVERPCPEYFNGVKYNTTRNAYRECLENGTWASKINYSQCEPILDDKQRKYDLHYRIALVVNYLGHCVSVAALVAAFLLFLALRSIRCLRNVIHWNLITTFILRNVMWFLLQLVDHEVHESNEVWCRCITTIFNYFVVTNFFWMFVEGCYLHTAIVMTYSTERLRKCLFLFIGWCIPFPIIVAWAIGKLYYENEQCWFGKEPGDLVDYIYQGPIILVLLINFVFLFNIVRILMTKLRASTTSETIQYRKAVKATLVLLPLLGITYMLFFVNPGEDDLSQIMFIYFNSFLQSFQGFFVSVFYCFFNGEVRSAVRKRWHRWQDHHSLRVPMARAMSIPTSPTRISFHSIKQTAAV
Assay: cAMP assay, h-CRHR2 transfected SK-N-MC cells
Assay type: cell-based
Details: Table 13; for EC50: cysteine mutation, N-ethylmaleimide capping, pegylation, read-out: pA50 (converted); for Log DR [M]: h-SCP control pA50 minus test compound pA50 within the same assay batch
Procedure: The concentration required for 50% maximum effect (A50) was 0.4 nM.
Human CRHR1 (accession number X72304) or CRHR2 (accession number U34587) were cloned into pcDNA3.1/Zeo expression vector and stably transfected into SK—N-MC cells by electroporation. Cells were maintained in MEM w/Earl's Salt with 10% FBS, 50 I.U. penicillin, 50 μg/ml streptomycin, 2 mM L-glutamine, 1 mM sodium pyruvate and 0.1 mM non-essential amino acids, 600 μg/ml G418. Cells were grown at 37° C. in 5% CO2
Cells were plated in 96-well tissue culture dishes (Biocoat from BD Biosciences) overnight at 50,000 cell/well. Cells were washed with PBS then resuspended in DMEM F-12 without phenol red, containing 10 μM isobutylmethylxanthine (IBMX). Cells were incubated with the peptides at concentrations ranging from 1 pM to 10 μM for 60 min at 37° Celsius. […] Forskolin (10 μM), a direct stimulant of adenylate cyclase, was used as positive control. The assays were stopped by the addition of 0.5 M HCl and mixing by orbital rotation for 2 h at 4° Celsius.
To assess the activity of the inventive polypeptide at the CRHR2, an intracellular cAMP measurement test using a Flash plate radioactive assay (Catalog No. Cus56088; Perkin Elmer, Mass., U.S.A.) was employed.
Transfected SK—N-MC cells were plated in 96-well Biocoat tissue culture dishes (BD Biosciences, San Jose, Calif., U.S.A) overnight at 50,000 cell/well. Cells were first washed with PBS and then suspended with DMEM/F-12 without phenol red, containing […]. Suspended cells were transferred into a 96-well flash plate coated with scintillant fluid. Cells were incubated with peptides ranging from 1 pM to 1 μM, for 60 min, at 37° Celsius. Forskolin at 10 μM was used as positive control. After ligand stimulation, cells were lysed by the addition of 0.5M HCl and mixed by orbital rotation for 2 h at 4° Celsius in order to release intracellular cAMP into the media.
Media containing released intracellular cAMP was transferred to a 96-well flash plate coated with scintillant fluid containing an anti-cAMP antibody. In this assay, intracellular cAMP competes with ^125I-labeled cAMP binding to the antibody. To generate a standard curve, cAMP ranging from 2.5 to 250 pmoles/ml was included in the experiment. [^125I]-cAMP was measured on a TopCount scintillation counter (Perkin Elmer, Mass., U.S.A).
Individual agonist concentration-response curve data were fitted to the Hill equation, see formula below, using GraphPad Prism (Graphpad Software, La Jolla, Calif., U.S.A.), to provide estimates of agonist concentration needed to generate one-half maximal response (A50), and the maximal asymptote (α) and Hill slope (nH) parameters. In this equation, [A] is the agonist concentration and E is the measured effect:
For display purposes the mean fitted parameter estimates were used to generate a single E/[A] curve shown superimposed on the mean experimental data. Potency estimates for agonists, pA50, are expressed as the negative logarithm of the midpoint of each curve and listed with their standard error of measurement (SEM). Logarithm base 10 of the agonist dose ratio (Log DR) values were calculated by subtraction of the test compound pA50 value from the corresponding h-SCP (SEQ ID NO:1) control pA50 value within the same assay batch. The SEM values of the Log DR values are given by the square root of the sum of the squared SEM values of the h-SCP (SEQ ID NO:1) control and test compound pA50 values.
Human and rat peptides (see Table 10) were used on the stimulation of h-CRHR1 or h-CRHR2 transfected SK—N-MC cells in the cAMP flash plate assay. Peptides were incubated for 1 hr at 37° Celsius. Curves were calculated using non-linear regression sigmoidal concentration-response analysis calculation in GraphPad Prism. The so obtained pA50 values are shown in Table 11 in addition to literature values. […]

Compound | EC50 | Log DR [M]
CC[C@H](C)[C@H](NC(=O)[C@H](CC(N)=O)NC(=O)[C@H](Cc1ccccc1)NC(=O)[C@H](CC(C)C)NC(=O)[C@H](CC(C)C)NC(=O)[C@H](CC(N)=O)NC(=O)[C@H](CCSC)NC(=O)[C@@H](NC(=O)[C@H](CC(N)=O)NC(=O)[C@@H](NC(=O)[C@@H]1CCCN1C(=O)[C@@H](NC(=O)[C@H](CC(=O)O)NC(=O)[C@H](CC(C)C)NC(=O)[C@H](CO)NC(=O)[C@H](CC(C)C)NC(=O)[C@@H](NC(=O)[C@H](Cc1ccccc1)NC(=O)[C@H](CCCCN)NC(=O)[C@@H](N)[C@@H](C)O)[C@@H](C)O)C(C)C)[C@@H](C)O)[C@@H](C)CC)C(=O)N[C@@H](C)C(=O)N[C@@H](CCCCN)C(=O)N[C@@H](C)C(=O)N[C@@H](CCCCN)C(=O)N[C@@H](CC(N)=O)C(=O)N[C@@H](CC(C)C)C(=O)N[C@@H](CCCNC(=N)N)C(=O)N[C@@H](C)C(=O)N[C@@H](CCC(N)=O)C(=O)N[C@@H](C)C(=O)N[C@@H](C)C(=O)N[C@@H](C)C(=O)N[C@@H](CC(N)=O)C(=O)N[C@@H](C)C(=O)N[C@@H](Cc1c[nH]cn1)C(=O)N[C@@H](CC(C)C)C(=O)N[C@@H](CCSC)C(=O)N[C@@H](C)C(=O)N[C@@H](CCC(N)=O)C(=O)N[C@@H](CSC1CC(=O)N(CC)C1=O)C(N)=O (some centres unmarked) [SEQ ID NO: 42, TKFTLSLDVPTNIMNLLFNIAKAKNLRAQAAANAHLMAQC(-NES)-NH2] (H-TKFTLSLDVPTNIMNLLFNIAKAKNLRAQAAANAHLMAQC(Succinimide(1-Et,3-yl))-NH2; N-terminus assumed) | ~17.8 nM | ~1.72
CC[C@H](C)[C@H](NC(=O)[C@H](CCC(N)=O)NC(=O)[C@H](C)NC(=O)[C@H](CCSC)NC(=O)[C@H](CC(C)C)NC(=O)[C@H](CSC1CC(=O)N(CC)C1=O)NC(=O)[C@H](C)NC(=O)[C@H](CC(N)=O)NC(=O)[C@H](C)NC(=O)[C@H](C)NC(=O)[C@H](C)NC(=O)[C@H](CCC(N)=O)NC(=O)[C@H](C)NC(=O)[C@H](CCCNC(=N)N)NC(=O)[C@H](CC(C)C)NC(=O)[C@H](CC(N)=O)NC(=O)[C@H](CCCCN)NC(=O)[C@H](C)NC(=O)[C@H](CCCCN)NC(=O)[C@H](C)NC(=O)[C@@H](NC(=O)[C@H](CC(N)=O)NC(=O)[C@H](Cc1ccccc1)NC(=O)[C@H](CC(C)C)NC(=O)[C@H](CC(C)C)NC(=O)[C@H](CC(N)=O)NC(=O)[C@H](CCSC)NC(=O)[C@@H](NC(=O)[C@H](CC(N)=O)NC(=O)[C@@H](NC(=O)[C@@H]1CCCN1C(=O)[C@@H](NC(=O)[C@H](CC(=O)O)NC(=O)[C@H](CC(C)C)NC(=O)[C@H](CO)NC(=O)[C@H](CC(C)C)NC(=O)[C@@H](NC(=O)[C@H](Cc1ccccc1)NC(=O)[C@H](CCCCN)NC(=O)[C@@H](N)[C@@H](C)O)[C@@H](C)O)C(C)C)[C@@H](C)O)[C@@H](C)CC)[C@@H](C)CC)C(N)=O (some centres unmarked) [SEQ ID NO: 43, TKFTLSLDVPTNIMNLLFNIAKAKNLRAQAAANAC(-NES) LMAQI-NH2] (H-TKFTLSLDVPTNIMNLLFNIAKAKNLRAQAAANAC(Succinimide(1-Et,3-yl))LMAQI-NH2) | 0.162 nM | −0.32
CC[C@H](C)[C@H](NC(=O)[C@H](CCC(N)=O)NC(=O)[C@H](C)NC(=O)[C@H](CCSC)NC(=O)[C@H](CC(C)C)NC(=O)[C@H](Cc1c[nH]cn1)NC(=O)[C@H](C)NC(=O)[C@H](CSC1CC(=O)N(CC)C1=O)NC(=O)[C@H](C)NC(=O)[C@H](C)NC(=O)[C@H](C)NC(=O)[C@H](CCC(N)=O)NC(=O)[C@H](C)NC(=O)[C@H](CCCNC(=N)N)NC(=O)[C@H](CC(C)C)NC(=O)[C@H](CC(N)=O)NC(=O)[C@H](CCCCN)NC(=O)[C@H](C)NC(=O)[C@H](CCCCN)NC(=O)[C@H](C)NC(=O)[C@@H](NC(=O)[C@H](CC(N)=O)NC(=O)[C@H](Cc1ccccc1)NC(=O)[C@H](CC(C)C)NC(=O)[C@H](CC(C)C)NC(=O)[C@H](CC(N)=O)NC(=O)[C@H](CCSC)NC(=O)[C@@H](NC(=O)[C@H](CC(N)=O)NC(=O)[C@@H](NC(=O)[C@@H]1CCCN1C(=O)[C@@H](NC(=O)[C@H](CC(=O)O)NC(=O)[C@H](CC(C)C)NC(=O)[C@H](CO)NC(=O)[C@H](CC(C)C)NC(=O)[C@@H](NC(=O)[C@H](Cc1ccccc1)NC(=O)[C@H](CCCCN)NC(=O)[C@@H](N)[C@@H](C)O)[C@@H](C)O)C(C)C)[C@@H](C)O)[C@@H](C)CC)[C@@H](C)CC)C(N)=O (some centres unmarked) [SEQ ID NO: 44, TKFTLSLDVPTNIMNLLFNIAKAKNLRAQAAAC(-NES)AH LMAQI-NH2] (H-TKFTLSLDVPTNIMNLLFNIAKAKNLRAQAAAC(Succinimide(1-Et,3-yl))AHLMAQI-NH2) | ~31.6 nM | ~1.97
CC[C@H](C)[C@H](NC(=O)[C@H](CCC(N)=O)NC(=O)[C@H](C)NC(=O)[C@H](CCSC)NC(=O)[C@H](CC(C)C)NC(=O)[C@H](Cc1c[nH]cn1)NC(=O)[C@H](C)NC(=O)[C@H](CC(N)=O)NC(=O)[C@H](CSC1CC(=O)N(CC)C1=O)NC(=O)[C@H](C)NC(=O)[C@H](C)NC(=O)[C@H](CCC(N)=O)NC(=O)[C@H](C)NC(=O)[C@H](CCCNC(=N)N)NC(=O)[C@H](CC(C)C)NC(=O)[C@H](CC(N)=O)NC(=O)[C@H](CCCCN)NC(=O)[C@H](C)NC(=O)[C@H](CCCCN)NC(=O)[C@H](C)NC(=O)[C@@H](NC(=O)[C@H](CC(N)=O)NC(=O)[C@H](Cc1ccccc1)NC(=O)[C@H](CC(C)C)NC(=O)[C@H](CC(C)C)NC(=O)[C@H](CC(N)=O)NC(=O)[C@H](CCSC)NC(=O)[C@@H](NC(=O)[C@H](CC(N)=O)NC(=O)[C@@H](NC(=O)[C@@H]1CCCN1C(=O)[C@@H](NC(=O)[C@H](CC(=O)O)NC(=O)[C@H](CC(C)C)NC(=O)[C@H](CO)NC(=O)[C@H](CC(C)C)NC(=O)[C@@H](NC(=O)[C@H](Cc1ccccc1)NC(=O)[C@H](CCCCN)NC(=O)[C@@H](N)[C@@H](C)O)[C@@H](C)O)C(C)C)[C@@H](C)O)[C@@H](C)CC)[C@@H](C)CC)C(N)=O (some centres unmarked) [SEQ ID NO: 45, TKFTLSLDVPTNIMNLLFNIAKAKNLRAQAAC(-NES)NAH LMAQI-NH2] (H-TKFTLSLDVPTNIMNLLFNIAKAKNLRAQAAC(Succinimide(1-Et,3-yl))NAHLMAQI-NH2; N-terminus assumed) | 0.331 nM | −0.01
